Measurements taken from patent US12245590B2, “Method for controlling weeds” (SUMITOMO CHEMICAL COMPANY, LIMITED, priority 2019, dated 2025).

Legend:
[1] = test system: Palmer amaranth, waterhemp, kochia, common ragweed or marestail; assay: Pot test, foliar spot treatment of weed patches before seeding the crop (Example 1); assay type: in vivo; conditions: spot foliar treatment of 20% of pot area, 50 g/ha, 150 L/ha, 1% Agri-Dex; weeds 14 days old; soybean, corn or cotton seeded immediately after; 21 days in greenhouse
Procedure: (§1) The evaluation of the herbicidal efficacy is classified into 0 to 100, where the numeral “0” indicates no or little difference in the state of emergence or growth of weeds under test at the time of examination as compared with untreated weeds, and the numeral “100” indicates the complete death of weeds under test or the complete inhibition of emergence or growth of weeds under test.
A pot is filled with a soil, and then Palmer amaranth, waterhemp, kochia, common ragweed or marestail is seeded at a corner portion of the soil. The weeds are grown in a greenhouse for 14 days, and a section including vegetation patches of weeds (20% of the area on the pot) is subjected to foliar treatment with a spray liquid of saflufenacil (prepared by diluting a commercially available formulation of saflufenacil (aqueous suspension concentrate containing 29.74% of saflufenacil, Sharpen, manufactured by BASF) with water containing 1% (w/v) of adjuvant Agri-Dex) at 50 g/ha (as an application amount in a spot-treated section) and a liquid amount of 150 L/ha (as a liquid amount in a spot-treated section). Immediately thereafter, soybean (Genuity Roundup Ready 2 Xtend), corn (Genuity Roundup Ready 2), or cotton (Genuity Roundup Ready 2 Xtend) is seeded in a corner portion different from vegetation patches of weeds in the soil, and grown in the greenhouse for 21 days. This is defined as the invention plot.

[2] = test system: Palmer amaranth, waterhemp, kochia, common ragweed or marestail; assay: Pot test, foliar spot treatment of weed patches with the crop growing (Example 2); assay type: in vivo; conditions: spot foliar treatment of 20% of pot area, 50 g/ha, 150 L/ha, 1% Agri-Dex; weeds and soybean, corn or cotton 14 days old; 21 days in greenhouse
Procedure: as §1
A pot is filled with soil, and then Palmer amaranth, waterhemp, kochia, common ragweed, or marestail is seeded at a corner portion of the soil, and soybean (Genuity Roundup Ready 2 Xtend), corn (Genuity Roundup Ready 2), or cotton (Genuity Roundup Ready 2 Xtend) is seeded at another corner portion of the soil. The weeds and crops are grown in a greenhouse for 14 days, and a section including vegetation patches of weeds (20% of the area on the pot) is subjected to foliar treatment with a spray liquid of saflufenacil (prepared by diluting Sharpen with water containing 1% (w/v) of adjuvant Agri-Dex) at 50 g/ha (as an application amount in a spot-treated section) and a liquid amount of 150 L/ha (as a liquid amount in a spot-treated section). Thereafter, the weeds and crops are grown in the greenhouse for 21 days. This is defined as the invention plot.

CC(C)N(C)S(=O)(=O)NC(=O)c1cc(-n2c(=O)cc(C(F)(F)F)n(C)c2=O)c(F)cc1Cl [saflufenacil]
weed control effect of the invention plot compared with comparative plots (no crop seeded; uniform blanket treatment) [1]: excellent weed control effect | weed control effect of the invention plot compared with comparative plots (no crop seeded; uniform blanket treatment) [2]: excellent weed control effect
